Laboratory results: patent US20050267020A1, “Polypeptides derived from inducible hsp70 and pharmaceutical compositions containing the same” (priority 2001, published 2005)

Columns and labels:
[1] = system: murine CTL lines mCTL134, mCTL380, mCTL391, mCTL393; assay: Murine CTL avidity for peptide, 51Cr release cytotoxic assay; assay type: cell-based, HHD mice; details: peptide concentration, effector:target ratio 40:1, each CTL line with its respective Hsp70 peptide, read-out: avidity (50% of maximal lysis)
Method: The four graphs indicate the cell lysis by CTL lines obtained after stimulation with the following peptides, respectively: HSP134 (line mCTL134), HSP380 (line mCTL380), HSP391 (line mCTL391) and HSP393 (line mCTL393). The avidity of the CTLs for their cellular target is determined with a ^51Cr release assay with an effector:target ratio of 40:1. The percentage of lysis of target cells is expressed on the Y axis, as a function of peptide concentration in the medium, which is represented on the X axis. In each graph, the black curve with diamond-shaped points represent cell lysis in presence of HSP peptides, whereas the grey curve with square points represent cell lysis in presence of cognate HSC peptides.
For measuring the avidity of mCTL134 for cells presenting HSP134, the peptide concentration ranges from […]. For mCTL380, mCTL391 and mCTL393, the respective peptide concentration ranges from 1 pM to 1 μM. The different points on each curve correspond, from left to right, to peptide concentrations of 1 pM, 10 pM, 100 pM, 1 nM, 10 nM, 100 nM and 1 μM.
Generation of CTL in HLA-transgenic mice. […]
Cytotoxic assay. […] After incubation, 100 μL of supernatant was collected and radioactivity was measured in a γ-counter. Percentage of specific lysis was determined as: Lysis=(Experimental Release−Spontaneous Release)/(Maximal Release−Spontaneous Release)×100. […]

HLA-A*0201 = target: T1, HLA-A*0201 (Homo sapiens, UniProt P04439, D140Y/D185E/D98H/E176V/E277Q/G131W/G231S/I119V/I121R/I166T/I218V/L300P/L318F/N151K/N90K/P208A/P217A/Q86G/Q94H/R138H/R169H/T345S); assay: Measurement of peptide relative affinity to HLA-A*0201 on T2 cells; assay type: binding; details: Relative Affinity determination
T1 construct: Tap−/− cells expressing the studied HLA-class I molecule; endogenous in cells; host or cells: T2 cells (Tap-/-, HLA-A*0201)
Method: Measurement of Peptide Relative Affinity to HLA class I. Tap−/− cells expressing the studied HLA-class I molecule (3×10^5 cells/mL) were incubated with various concentrations of peptides ranging from 100 μM to 0.1 μM in serum-free RPMI 1640 medium supplemented with 100 ng/ml of human β-2m at 37° C. for 16 hours. Cells were then washed twice and stained with the specific anti-class I mAb followed by FITC conjugated goat anti mouse Ig mAb to quantify the expression of HLA-A*0201. For each peptide concentration, the HLA-specific staining was calculated as the % of the staining obtained with 100 μM of the reference peptide. The relative affinity (RA) is determined as: RA=(Concentration of each peptide that induces 20% of HLA expression/Concentration of the reference peptide that induces 20% of HLA expression). The lower the RA-value, the stronger is the peptide binding to HLA. The mean RA value for each peptide is determined from at least three independent experiments. […]
The affinity of each peptide was assayed experimentally by determination of the Relative Affinity: the necessary peptide dose to stabilise a reference quantity of HLA-A*0201 molecules at the surface of T2 cells; and the stability of each peptide was assayed by determination of the half-life of the peptide/HLA-A*0201 molecule complex (DC50: dissociation complex 50).

Row | Sequence | EC50 [1] | affinity for HLA-A*0201 (in words) (HLA-A*0201)
1 | LMGDKSENV [HSP 380] | ~10 nM | –
2 | YLGYPVTNAV [HSP 134(10)] | – | strong affinity
